Reference: PMC11648915, “Identification and development of TRPM4 antagonists to counteract neuronal excitotoxicity” (iScience, 2024)
Where “and” joins values, the source holds several entries; their conditions need not be identical. Equal values may be shown once. Read-outs that look alike come from different tables or passages of the source. One block for each compound: values may come before it.

Key:
human TRPM4 = human TRPM4 (Homo sapiens, UniProt Q8TD43); test: QPatch automated patch clamp on TRPM4-expressing HEK293 cells; type: cell-based; settings: hsTRPM4-expressing HEK293 cells; for EC50: read-out: TRPM4 EC50 (potentiator activity)
Procedure: QPatchHTX, an automated electrophysiology platform, was used in single hole mode. One day before use human TRPM4- or TRPM5-expressing HEK293 cells were seeded in a T75 flask at a density of 53k cells per cm^2 and at passages < 23. […] The extracellular solution was (in mM): CaCl2 (7), MgCl2 (2), KCl (5), HEPES (10), NaCl (70), NMDG (70); pH 7.4 with NaOH. The intracellular solution was (in mM): HEPES (10), NMDG (100), NaCl (50), EGTA (20), MgCl2 (1), CaCl2 (21); pH 7.2 with HCl. […] This protocol was repeated every 7 seconds. […] FFA was used as reference compound and applied cumulatively with each concentration incubating at a minimum of 20 voltage protocol runs (140 seconds) with the current after addition of FFA being calculated as full block. […] Each compound was measured at least 3 time independently.

human TRPM5 = biological target: T1, human TRPM5 (Homo sapiens, UniProt Q9NZQ8); test: QPatch automated patch clamp on TRPM5-expressing HEK293 cells; type: cell-based; settings: hsTRPM5-expressing HEK293 cells
T1 sequence (Q9NZQ8 1-1165): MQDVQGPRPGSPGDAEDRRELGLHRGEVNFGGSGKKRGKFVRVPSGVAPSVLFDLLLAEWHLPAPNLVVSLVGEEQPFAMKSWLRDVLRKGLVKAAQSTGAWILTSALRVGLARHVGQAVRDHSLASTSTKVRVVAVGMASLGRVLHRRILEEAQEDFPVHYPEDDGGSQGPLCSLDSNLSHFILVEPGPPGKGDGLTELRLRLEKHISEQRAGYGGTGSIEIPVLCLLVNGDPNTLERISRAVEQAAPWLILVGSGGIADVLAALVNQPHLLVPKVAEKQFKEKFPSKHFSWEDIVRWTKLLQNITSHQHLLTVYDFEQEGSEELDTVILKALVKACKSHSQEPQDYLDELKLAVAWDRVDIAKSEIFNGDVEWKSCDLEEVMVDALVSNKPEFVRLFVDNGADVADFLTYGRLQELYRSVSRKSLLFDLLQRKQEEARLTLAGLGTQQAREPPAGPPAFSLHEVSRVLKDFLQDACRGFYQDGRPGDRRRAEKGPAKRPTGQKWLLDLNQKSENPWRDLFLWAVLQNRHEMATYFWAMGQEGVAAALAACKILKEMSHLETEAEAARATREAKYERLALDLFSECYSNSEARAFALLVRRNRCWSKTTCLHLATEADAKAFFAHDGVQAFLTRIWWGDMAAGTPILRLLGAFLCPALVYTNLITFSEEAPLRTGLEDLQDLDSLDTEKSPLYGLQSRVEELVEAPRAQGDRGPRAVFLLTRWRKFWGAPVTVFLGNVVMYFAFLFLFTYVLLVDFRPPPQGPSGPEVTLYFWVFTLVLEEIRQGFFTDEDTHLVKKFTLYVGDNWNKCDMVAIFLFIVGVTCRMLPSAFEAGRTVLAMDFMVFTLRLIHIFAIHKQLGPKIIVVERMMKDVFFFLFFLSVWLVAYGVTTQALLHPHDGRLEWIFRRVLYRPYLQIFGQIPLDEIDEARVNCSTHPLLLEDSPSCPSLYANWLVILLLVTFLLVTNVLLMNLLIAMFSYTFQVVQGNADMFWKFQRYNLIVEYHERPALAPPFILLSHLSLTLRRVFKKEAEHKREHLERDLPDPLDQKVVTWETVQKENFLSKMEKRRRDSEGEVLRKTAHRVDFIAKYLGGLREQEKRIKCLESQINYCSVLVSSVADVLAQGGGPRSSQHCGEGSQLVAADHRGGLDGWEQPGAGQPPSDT
Text: The counter screening phase involved the inclusion of hsTRPM5-expressing HEK293 cells, as closest homologue, and the parental HEK293 cell line to evaluate selectivity. […] Based on categorization of biological activity, mass spectrometry quality control, and aspects of medicinal chemistry, we prioritized 144 selective hsTRPM4 compounds. These compounds were then subjected to automated patch clamp electrophysiology measurements (QPatch[58]) to evaluate their activity profiles and IC50 values (Figures 1A, S1, and S2).
QPatchHTX, an automated electrophysiology platform, was used in single hole mode. One day before use human TRPM4- or TRPM5-expressing HEK293 cells were seeded in a T75 flask at a density of 53k cells per cm^2 and at passages < 23. For QPatch assays, cells were harvested and re-suspended in SFM (Gibco, 11686029). The extracellular solution was (in mM): CaCl2 (7), MgCl2 (2), KCl (5), HEPES (10), NaCl (70), NMDG (70); pH 7.4 with NaOH. The intracellular solution was (in mM): HEPES (10), NMDG (100), NaCl (50), EGTA (20), MgCl2 (1), CaCl2 (21); pH 7.2 with HCl. After break-in, channels were consistently open and current through the channels could be observed at a voltage ramp from –100 mV to +100 mV over 500 ms. This protocol was repeated every 7 seconds. After saline and vehicle application, the channel was desensitized and residual current was used as baseline. FFA was used as reference compound and applied cumulatively with each concentration incubating at a minimum of 20 voltage protocol runs (140 seconds) with the current after addition of FFA being calculated as full block. […] Each compound was measured at least 3 time independently.

[1] = In vivo pharmacokinetics after single i.p. or i.v. dose; settings: female, C57BL/6J, mouse
Procedure: Next, to assess in vivo availability of the Series 1–3 compounds, we evaluated drug metabolism and pharmacokinetics (DMPK). We measured compound concentrations in plasma, heart, and brain at several time points after intraperitoneal (i.p.) or intravenous (i.v.) single-dose injections.
Half-life and bioavailability were calculated by noncompartmental analysis using the R package PK[84] (v1.3-6).

CYP2D6 = biological target: T2, CYP2D6 (Homo sapiens, UniProt P10635); test: CYP inhibition assay 2D6; type: in vitro ADME
T2 construct: purchased BD Gentest
Procedure: (§1) The half-maximal inhibitory concentration (IC50) for cytochrome P450 (CYP) enzymes was determined using an in vitro enzyme inhibition assay. Recombinant CYP enzymes or human liver microsomes from BD Gentest, in 0.1 M phosphate buffer pH 7.4, containing native CYP enzymes were incubated with the test compound at various concentrations (1, 3, 10 and 30 μM) and containing 0.5% DMSO and 0.1% BSA final concentrations. 1 mM of NADPH cofactor was added and the reaction was started by a rapid increase of temperature until 37°C.

[2] = biological target: potassium channel human Ether-a-go-go Related Gene (hERG) (Homo sapiens, UniProt Q12809); test: hERG channel inhibition; type: cell-based
Text: We next used in vitro assays to test absorption, distribution, metabolism, excretion and toxicity (ADMET) parameters for selected compounds. We assessed compound absorption using parallel artificial membrane permeability (PAMPA) and Caco-2 cell permeability assays (cut-off criterion >2 × 10^−6 cm s^−1). […] To assess potential off-target activity of our compounds that could be relevant for safety in humans, we conducted comprehensive in vitro pharmacology using the commercially available and widely used SafetyScreen44 interaction panel[60] covering eight protein families.

[3] = Microsome clearance (human); type: in vitro ADME; settings: human liver microsomes, 45 min, NADPH, read-out: Microsomes (h) clearance (converted)
Procedure: (§2) Human or mouse liver microsomes were incubated with the test compound at a concentration of 1 μM for 45 min in the presence of cofactor (NADPH in excess). Samples were collected at various time points, and % remaining of test compound was determined using mass spectrometry (LC-MS/MS) to calculate hepatic clearance rate (L/h/kg).

[4] = Microsome clearance (mouse); type: in vitro ADME; settings: mouse liver microsomes, 45 min, NADPH
Procedure: as §2

CYP3A4 = biological target: T3, CYP3A4 (Homo sapiens, UniProt P08684); test: CYP inhibition assay 3A4; type: in vitro ADME
T3 construct: purchased BD Gentest
Procedure: as §1

[5] = Parallel Artificial Membrane Permeability Assay (PAMPA); type: in vitro ADME; settings: pH not given; for Papp at 16 h, 200 μM: PAMPA, read-out: PAMPA perm.
Procedure: Parallel Artificial Membrane Permeability Assay (PAMPA) was performed using artificial lipid membrane layers to assess passive permeability of the test compound. Test compounds were diluted to 200 μM in system buffer at pH 5.0, 6.2 and 7.4. The solutions were filtered and 150 μL transferred to a High Sensitivity 96 well UV plate. This was analysed by UV as the reference plate. A 200 μL sample of the 200 μM solution was transferred to the ‘donor’ plate of the PAMPA pIon sandwich plate system. 200 μL of acceptor sink buffer was transferred to the ‘acceptor’ plate which had been previously treated with GIT-O lipid solution across the well filter. Donor and acceptor plates were sandwiched and kept in a humid environment at room temperature for 16 hours. On completion of the incubation the donor and acceptor plates were separated. 150 μL of solution was transferred from each of the donor and acceptor PAMPA sandwich plates into High Sensitivity 96 well UV plates for analysis by UV. at different time points. The concentration of the compound in the acceptor compartment was determined using mass spectrometry. The permeability coefficient (Papp) was calculated based on the rate of appearance of the compound in the acceptor compartment (nm/s).

CYP 2C19 = biological target: T4, CYP 2C19 (Homo sapiens, UniProt P33261); test: CYP inhibition assay 2C19; type: in vitro ADME
T4 construct: purchased BD Gentest
Procedure: as §1

[6] = Caco-2 permeability assay; type: in vitro ADME; settings: human, heading: Caco-2 perm., direction not given
Procedure: Caco-2 permeability was evaluated using a cell-based assay with Caco-2 cells cultured on permeable membrane inserts. The test compound was added at 10 μM to the apical (donor) compartment, and samples were collected from the basolateral (receiver) compartment at 120 min. The test compound was also added at 10 μM to the basolateral (donor) compartment, and samples were collected from the apical (receiver) compartment at 120 min. The amount of the compound in both compartments was measured using mass spectrometry (LC-MS/MS). The permeability coefficient (Papp, nm/s) apical to basolateral and basolateral to apical, and an efflux ratio were calculated.

[7] = brain, ip, read-out: Brain half-life (converted)
[8] = brain, iv, read-out: Brain half-life (converted)
[9] = heart, ip, read-out: Heart half-life (converted)
[10] = heart, iv, read-out: Heart half-life (converted)
[11] = plasma, ip, read-out: Plasma half-life (converted)
[12] = plasma, iv, read-out: Plasma half-life (converted)

Chain of human TRPM4 (Q8TD43 whole entry): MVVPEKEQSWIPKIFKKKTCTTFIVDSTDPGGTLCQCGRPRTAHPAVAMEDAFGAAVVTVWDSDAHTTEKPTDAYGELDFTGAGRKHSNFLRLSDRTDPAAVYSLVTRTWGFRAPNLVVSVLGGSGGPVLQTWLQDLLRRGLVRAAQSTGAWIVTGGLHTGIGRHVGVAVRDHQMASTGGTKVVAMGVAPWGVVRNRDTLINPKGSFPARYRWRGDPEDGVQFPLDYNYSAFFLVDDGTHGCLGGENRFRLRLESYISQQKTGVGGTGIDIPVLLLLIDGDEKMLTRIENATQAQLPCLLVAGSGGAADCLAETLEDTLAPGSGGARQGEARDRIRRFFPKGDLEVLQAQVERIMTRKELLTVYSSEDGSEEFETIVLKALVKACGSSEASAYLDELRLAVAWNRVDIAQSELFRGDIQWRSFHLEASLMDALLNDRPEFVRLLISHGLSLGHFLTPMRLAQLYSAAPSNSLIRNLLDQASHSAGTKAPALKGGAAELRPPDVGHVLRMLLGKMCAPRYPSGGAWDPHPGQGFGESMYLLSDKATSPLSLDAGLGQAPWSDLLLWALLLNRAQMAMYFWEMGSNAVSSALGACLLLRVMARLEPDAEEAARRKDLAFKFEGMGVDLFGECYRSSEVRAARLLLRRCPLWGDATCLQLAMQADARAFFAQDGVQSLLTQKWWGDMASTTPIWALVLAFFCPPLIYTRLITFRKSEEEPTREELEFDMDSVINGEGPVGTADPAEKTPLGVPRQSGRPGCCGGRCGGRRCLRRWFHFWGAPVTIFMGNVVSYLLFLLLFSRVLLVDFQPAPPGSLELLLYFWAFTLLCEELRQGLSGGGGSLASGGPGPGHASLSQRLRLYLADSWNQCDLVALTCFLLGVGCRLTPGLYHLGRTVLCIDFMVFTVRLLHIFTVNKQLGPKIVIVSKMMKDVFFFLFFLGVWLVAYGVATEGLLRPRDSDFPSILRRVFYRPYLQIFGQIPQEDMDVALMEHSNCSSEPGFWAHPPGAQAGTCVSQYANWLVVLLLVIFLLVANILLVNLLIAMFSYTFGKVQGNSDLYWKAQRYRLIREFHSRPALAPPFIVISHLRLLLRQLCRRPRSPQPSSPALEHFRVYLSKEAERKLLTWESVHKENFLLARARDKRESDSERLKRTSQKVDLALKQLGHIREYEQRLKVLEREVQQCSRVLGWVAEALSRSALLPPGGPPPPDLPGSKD
T3 sequence (P08684 whole entry): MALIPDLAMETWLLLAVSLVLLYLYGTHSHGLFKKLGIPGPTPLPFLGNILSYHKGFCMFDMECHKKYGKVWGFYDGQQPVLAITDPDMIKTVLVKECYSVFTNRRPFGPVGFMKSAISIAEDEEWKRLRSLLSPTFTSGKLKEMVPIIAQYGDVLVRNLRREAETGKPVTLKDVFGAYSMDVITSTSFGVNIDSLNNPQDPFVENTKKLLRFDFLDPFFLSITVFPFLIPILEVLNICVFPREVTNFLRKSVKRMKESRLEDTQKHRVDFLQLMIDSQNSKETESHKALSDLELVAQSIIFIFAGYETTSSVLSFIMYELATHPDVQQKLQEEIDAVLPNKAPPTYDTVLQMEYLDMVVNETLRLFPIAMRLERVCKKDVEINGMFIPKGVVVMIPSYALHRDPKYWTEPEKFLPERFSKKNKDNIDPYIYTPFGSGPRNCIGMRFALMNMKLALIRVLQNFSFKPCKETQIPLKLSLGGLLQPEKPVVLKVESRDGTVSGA
T2 sequence (P10635 whole entry): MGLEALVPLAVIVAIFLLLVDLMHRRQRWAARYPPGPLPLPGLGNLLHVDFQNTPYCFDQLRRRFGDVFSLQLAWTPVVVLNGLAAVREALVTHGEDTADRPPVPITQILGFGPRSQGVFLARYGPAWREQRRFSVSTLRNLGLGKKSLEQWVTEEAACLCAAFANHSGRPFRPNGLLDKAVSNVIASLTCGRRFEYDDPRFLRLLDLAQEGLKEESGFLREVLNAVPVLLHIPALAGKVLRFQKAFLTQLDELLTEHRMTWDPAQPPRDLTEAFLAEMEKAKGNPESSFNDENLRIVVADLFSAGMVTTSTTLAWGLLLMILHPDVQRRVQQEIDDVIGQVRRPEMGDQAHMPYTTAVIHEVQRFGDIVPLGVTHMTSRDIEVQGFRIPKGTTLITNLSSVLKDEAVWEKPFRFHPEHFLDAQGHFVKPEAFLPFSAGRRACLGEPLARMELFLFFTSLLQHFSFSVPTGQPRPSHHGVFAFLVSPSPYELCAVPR
Chain of potassium channel human Ether-a-go-go Related Gene (hERG) (Q12809 whole entry): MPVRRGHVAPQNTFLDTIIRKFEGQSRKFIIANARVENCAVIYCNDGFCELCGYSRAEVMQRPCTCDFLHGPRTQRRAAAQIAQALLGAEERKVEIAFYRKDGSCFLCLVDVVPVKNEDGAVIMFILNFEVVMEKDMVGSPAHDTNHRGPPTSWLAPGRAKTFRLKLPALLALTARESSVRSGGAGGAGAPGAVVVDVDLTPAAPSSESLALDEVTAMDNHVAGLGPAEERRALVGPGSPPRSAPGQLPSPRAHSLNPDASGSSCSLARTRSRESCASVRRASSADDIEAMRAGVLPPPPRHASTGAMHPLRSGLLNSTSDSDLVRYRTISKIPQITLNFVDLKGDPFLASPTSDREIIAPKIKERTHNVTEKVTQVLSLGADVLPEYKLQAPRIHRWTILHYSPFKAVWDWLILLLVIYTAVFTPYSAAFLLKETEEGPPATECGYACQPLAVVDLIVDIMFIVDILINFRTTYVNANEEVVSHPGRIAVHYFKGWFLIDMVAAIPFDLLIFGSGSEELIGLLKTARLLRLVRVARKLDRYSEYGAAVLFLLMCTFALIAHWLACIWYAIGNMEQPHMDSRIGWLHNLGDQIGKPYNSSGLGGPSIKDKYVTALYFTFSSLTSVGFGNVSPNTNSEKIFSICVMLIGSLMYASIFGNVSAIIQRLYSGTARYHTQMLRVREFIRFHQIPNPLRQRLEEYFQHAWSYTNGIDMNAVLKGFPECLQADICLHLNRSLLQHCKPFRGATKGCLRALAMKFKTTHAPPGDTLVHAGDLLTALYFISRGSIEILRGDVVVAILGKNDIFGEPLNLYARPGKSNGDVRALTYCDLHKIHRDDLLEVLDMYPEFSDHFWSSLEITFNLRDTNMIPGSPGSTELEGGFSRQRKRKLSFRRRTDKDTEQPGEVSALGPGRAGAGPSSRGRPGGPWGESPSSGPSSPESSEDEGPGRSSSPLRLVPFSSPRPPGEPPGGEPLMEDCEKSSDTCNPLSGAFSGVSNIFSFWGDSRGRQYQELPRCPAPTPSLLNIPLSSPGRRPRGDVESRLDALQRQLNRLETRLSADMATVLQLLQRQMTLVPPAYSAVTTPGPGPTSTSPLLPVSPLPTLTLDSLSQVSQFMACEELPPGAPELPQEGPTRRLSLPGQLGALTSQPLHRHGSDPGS
T4 sequence (P33261 whole entry): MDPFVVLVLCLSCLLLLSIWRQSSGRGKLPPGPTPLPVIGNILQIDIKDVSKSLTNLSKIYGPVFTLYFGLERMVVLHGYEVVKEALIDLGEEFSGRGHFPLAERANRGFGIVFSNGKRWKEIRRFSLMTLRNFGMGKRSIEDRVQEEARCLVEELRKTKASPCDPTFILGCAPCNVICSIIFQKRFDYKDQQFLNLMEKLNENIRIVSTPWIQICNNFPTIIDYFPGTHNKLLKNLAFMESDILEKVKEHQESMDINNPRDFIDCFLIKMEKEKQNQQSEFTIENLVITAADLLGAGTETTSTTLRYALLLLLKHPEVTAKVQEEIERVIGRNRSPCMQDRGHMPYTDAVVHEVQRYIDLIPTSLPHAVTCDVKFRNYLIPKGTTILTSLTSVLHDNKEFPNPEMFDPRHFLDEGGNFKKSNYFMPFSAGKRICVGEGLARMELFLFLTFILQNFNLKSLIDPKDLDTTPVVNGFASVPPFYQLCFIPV

SMILES: c1ccc(-c2ccccc2NCc2nc3ccccc3o2)cc1 [CMP009]
IC50 (human TRPM4): 550 nM

SMILES: O=c1cc(NC2CCCCCC2)nc2ccc(Cl)cn12 [CMP111]
IC50 (human TRPM4): 170 nM and 110 nM

IC50 (human TRPM5): > 30 µM
SMILES: O=C(O)c1cc(Br)ccc1NS(=O)(=O)c1ccc(Cl)cc1 [CMP116]
IC50 (human TRPM4): 1870 nM

SMILES: c1ccc(CSCc2cn3ccsc3n2)cc1 [CMP133]
IC50 (human TRPM4): 280 nM

half-life [1, 7]: 234 min
half-life [1, 8]: 252 min
half-life [1, 9]: 198 min
half-life [1, 10]: 210 min
half-life [1, 11]: 174 min
half-life [1, 12]: 168 min
SMILES: Cc1noc(-c2csc(S(=O)(=O)Nc3ccccc3C(F)(F)F)c2)c1C [CMP157]
IC50 (human TRPM4): 360 nM

SMILES: Nc1nnc(Cc2cccc(Br)c2)s1 [CMP225]
EC50 (human TRPM4): 1340 nM

SMILES: Oc1ccccc1NCc1nc2ccccc2o1 [CMP311]
EC50 (human TRPM4): 3240 nM

SMILES: COc1ccccc1-c1ccccc1NCc1nc2ccccc2o1 [CMP320]
IC50 (human TRPM4): 820 nM

IC50 (CYP2D6): > 50 µM
CLint scaled at 1 μM [3]: 460 mL/min/kg
CLint scaled at 1 μM [4]: > 900 mL/min/kg
IC50 (human TRPM5): > 10 µM
IC50 (CYP3A4; TDI, read-out: Cyp IC50 TDI 3A4): > 50 µM
IC50 (CYP3A4; read-out: Cyp IC50 3A4): > 50 µM
half-life [1, 7]: 156 min
half-life [1, 8]: 96 min
half-life [1, 9]: 258 min
half-life [1, 10]: 288 min
half-life [1, 11]: 270 min
half-life [1, 12]: 90 min
SMILES: Cc1ccc(-c2ccccc2NCc2nc3ccccc3o2)s1 [CMP354]
IC50 [2]: > 10 µM

IC50 (CYP2D6): > 50 µM
CLint scaled at 1 μM [3]: 302 mL/min/kg
CLint scaled at 1 μM [4]: 900 mL/min/kg
IC50 (human TRPM5): > 30 µM
Papp at 16 h, 200 μM [5]: 25 ×10⁻⁶ cm/s
IC50 (CYP 2C19): 4 µM
Papp at 120 min, 10 μM [6]: 233 nm/s
SMILES: CNc1cccc(-c2ccccc2NCc2nc3ccccc3o2)c1 [CMP462]

IC50 (CYP2D6): > 50 µM
CLint scaled at 1 μM [3]: 216 mL/min/kg
CLint scaled at 1 μM [4]: 393 mL/min/kg
IC50 (human TRPM5): > 30 µM
Papp at 16 h, 200 μM [5]: 37.9 ×10⁻⁶ cm/s
Papp at 120 min, 10 μM [6]: 189 nm/s
SMILES: Nc1cccc(-c2ccccc2NCc2nc3ccccc3o2)c1 [CMP465]

IC50 (CYP2D6): > 50 µM
CLint scaled at 1 μM [3]: 225 mL/min/kg
CLint scaled at 1 μM [4]: 900 mL/min/kg
IC50 (human TRPM5): > 30 µM
Papp at 16 h, 200 μM [5]: 22 ×10⁻⁶ cm/s
SMILES: CNc1ccc(-c2ccccc2NCc2nc3ccccc3o2)cc1 [CMP470]

IC50 (CYP2D6; human, pH 7.4): > 50 µM
IC50 (human TRPM5): > 30 µM
PAMPA perm. [5]: no detection
IC50 (CYP3A4; human, pH 7.4): > 50 µM
SMILES: CCCNc1cccc(-c2ccccc2NCc2nc3ccccc3o2)c1 [CMP471]

IC50 (human TRPM5): > 30 µM
SMILES: O=C(CCc1ccccc1)Nc1ccc(Cl)cc1C(=O)O [CMP493]
IC50 (human TRPM4): 530 nM

IC50 (human TRPM5): > 30 µM
SMILES: O=C(CCc1ccccc1)Nc1ccc(C(F)(F)F)cc1C(=O)O [CMP502]
IC50 (human TRPM4): 600 nM

IC50 (human TRPM5): 19 µM
SMILES: O=C(CCc1ccccc1Cl)Nc1ccc(Br)cc1C(=O)O [CMP510]
IC50 (human TRPM4): 720 nM

IC50 (human TRPM5): 0.94 µM
SMILES: O=C(CCc1cccc(Cl)c1)Nc1ccc(Br)cc1C(=O)O [CMP512]
IC50 (human TRPM4): 410 nM
